From patent US9302999B2, “Substituted triazoles as herbicides” (E. I. DU PONT DE NEMOURS AND COMPANY, priority 2012, dated 2016)

How the values were obtained:
Type in all cases: in vivo
rice (Oryza sativa) = test: Test C flooded paddy test: rice; conditions: scale 0 to 100 (0 no effect, 100 complete control)
In short: (§1)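 Plants were grown to the 2-leaf stage, pots flooded to 3 cm above soil, and test compounds applied directly to the paddy water, with that depth held throughout. After 13 to 15 days in a greenhouse, injury was visually rated against controls on a 0 (no effect) to 100 (complete control) scale.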

[1] = system: wheat (Triticum aestivum); test: Test A pre-/postemergence: wheat; conditions: for Wheat plant response rating: Postemergence; for Plant response rating, Wheat: Preemergence
In short: (§2)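 Plants in loam–sand blend were treated with test chemicals in non-phytotoxic solvent with surfactant, either as preemergence directed soil spray or postemergence at 2–10 cm, one- to two-leaf stage. After about ten days in greenhouse, injury was rated visually against untreated controls on a 0–100 scale (100 = complete control).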

[2] = system: barnyardgrass (Echinochloa crus-galli); test: Test A pre-/postemergence: barnyardgrass; conditions: for Barnyardgrass plant response rating: Postemergence; for Plant response rating, Barnyardgrass: Preemergence
In short: as §2

[3] = system: velvetleaf (Abutilon theophrasti); test: Test A pre-/postemergence: velvetleaf; conditions: for Velvetleaf plant response rating: Postemergence; for Plant response rating, Velvetleaf: Preemergence
In short: as §2

[4] = system: morningglory (Ipomoea spp.); test: Test A pre-/postemergence: morningglory; conditions: for Morningglory plant response rating: Postemergence; for Plant response rating, Morningglory: Preemergence
In short: as §2

[5] = system: ducksalad (Heteranthera limosa); test: Test C flooded paddy test: ducksalad; conditions: scale 0 to 100 (0 no effect, 100 complete control)
In short: as §1

[6] = system: crabgrass, large (large crabgrass, Digitaria sanguinalis); test: Test A pre-/postemergence: crabgrass, large; conditions: for Crabgrass, Large plant response rating: Postemergence; for Plant response rating, Crabgrass, Large: Preemergence
In short: as §2

[7] = system: foxtail, giant (giant foxtail, Setaria faberii); test: Test A pre-/postemergence: foxtail, giant; conditions: for Foxtail, Giant plant response rating: Postemergence; for Plant response rating, Foxtail, Giant: Preemergence
In short: as §2

[8] = system: barnyardgrass (Echinochloa crus-galli); test: Test C flooded paddy test: barnyardgrass; conditions: scale 0 to 100 (0 no effect, 100 complete control)
In short: as §1

[9] = system: pigweed (Amaranthus retroflexus); test: Test A pre-/postemergence: pigweed; conditions: for Pigweed plant response rating: Postemergence; for Plant response rating, Pigweed: Preemergence
In short: as §2

[10] = system: sedge, umbrella (small-flower umbrella sedge, Cyperus difformis); test: Test C flooded paddy test: sedge, umbrella; conditions: scale 0 to 100 (0 no effect, 100 complete control)
In short: as §1

corn (Zea mays) = test: Test A pre-/postemergence: corn; conditions: for Corn plant response rating: Postemergence; for Plant response rating, Corn: Preemergence
In short: as §2

[11] = Flood (flooded paddy test), 125 g ai/ha, visual rating after 13 to 15 days
[12] = Flood (flooded paddy test), 250 g ai/ha, visual rating after 13 to 15 days
[13] = 125 g ai/ha, 0 to 100 scale, 0 is no effect, 100 is complete control
[14] = 500 g ai/ha, visual rating on 0 to 100 scale (0 no effect, 100 complete control), approximately ten days
[15] = 125 g ai/ha, 0 to 100 scale (0 no effect, 100 complete control)
[16] = 500 g ai/ha, 0 to 100 scale, 0 is no effect, 100 is complete control

SMILES: COc1nn(-c2ccc(C(F)(F)F)cc2)nc1C(O)c1ccnc(C(F)(F)F)c1 (stereo not drawn) [Compound 78]
- Plant response rating, Rice (rice (Oryza sativa); [11]): 0
- Plant response rating, Rice (rice (Oryza sativa); [12]): 0
- Plant response rating, Rice (rice (Oryza sativa); Flood, 31 g ai/ha): 0
- Plant response rating, Rice (rice (Oryza sativa); Flood, 62 g ai/ha): 0
- Wheat plant response rating [1, 13]: 0
- Wheat plant response rating [1, 14]: 0
- Plant response rating, Wheat [1, 15]: 0
- Plant response rating, Wheat [1, 16]: 0
- Barnyardgrass plant response rating [2, 13]: 0
- Barnyardgrass plant response rating [2, 14]: 10
- Plant response rating, Barnyardgrass [2, 15]: 0
- Plant response rating, Barnyardgrass [2, 16]: 20
- Velvetleaf plant response rating [3, 13]: 10
- Velvetleaf plant response rating [3, 14]: 20
- Plant response rating, Velvetleaf [3, 15]: 10
- Plant response rating, Velvetleaf [3, 16]: 20
- Morningglory plant response rating [4, 13]: 0
- Morningglory plant response rating [4, 14]: 40
- Plant response rating, Morningglory [4, 15]: 0
- Plant response rating, Morningglory [4, 16]: 10
- Plant response rating, Ducksalad [5, 11]: 0
- Plant response rating, Ducksalad [5, 12]: 0
- Plant response rating, Ducksalad ([5]; Flood, 31 g ai/ha): 0
- Plant response rating, Ducksalad ([5]; Flood, 62 g ai/ha): 0
- Crabgrass, Large plant response rating [6, 13]: 10
- Crabgrass, Large plant response rating [6, 14]: 20
- Plant response rating, Crabgrass, Large [6, 15]: 60
- Plant response rating, Crabgrass, Large [6, 16]: 80
- Foxtail, Giant plant response rating [7, 13]: 10
- Foxtail, Giant plant response rating [7, 14]: 30
- Plant response rating, Foxtail, Giant [7, 15]: 20
- Plant response rating, Foxtail, Giant [7, 16]: 70
- Plant response rating, Barnyardgrass [8, 11]: 0
- Plant response rating, Barnyardgrass [8, 12]: 20
- Plant response rating, Barnyardgrass ([8]; Flood, 31 g ai/ha): 0
- Plant response rating, Barnyardgrass ([8]; Flood, 62 g ai/ha): 0
- Pigweed plant response rating [9, 13]: 50
- Pigweed plant response rating [9, 14]: 90
- Plant response rating, Pigweed [9, 15]: 60
- Plant response rating, Pigweed [9, 16]: 70
- Plant response rating, Sedge, Umbrella [10, 11]: 0
- Plant response rating, Sedge, Umbrella [10, 12]: 0
- Plant response rating, Sedge, Umbrella ([10]; Flood, 31 g ai/ha): 0
- Plant response rating, Sedge, Umbrella ([10]; Flood, 62 g ai/ha): 0
- Corn plant response rating (corn (Zea mays); [13]): 0
- Corn plant response rating (corn (Zea mays); [14]): 10
- Plant response rating, Corn (corn (Zea mays); [15]): 0
- Plant response rating, Corn (corn (Zea mays); [16]): 0

SMILES: COc1nn(-c2ccc(C(F)(F)F)cc2)nc1C(C)(O)c1ccnc(C(F)(F)F)c1 (stereo not drawn) [Compound 79]
- Plant response rating, Rice (rice (Oryza sativa); [11]): 0
- Plant response rating, Rice (rice (Oryza sativa); [12]): 0
- Plant response rating, Rice (rice (Oryza sativa); Flood, 31 g ai/ha): 0
- Plant response rating, Rice (rice (Oryza sativa); Flood, 62 g ai/ha): 0
- Wheat plant response rating [1, 13]: 0
- Wheat plant response rating [1, 14]: 0
- Plant response rating, Wheat [1, 15]: 0
- Plant response rating, Wheat [1, 16]: 0
- Barnyardgrass plant response rating [2, 13]: 0
- Barnyardgrass plant response rating [2, 14]: 0
- Plant response rating, Barnyardgrass [2, 15]: 0
- Plant response rating, Barnyardgrass [2, 16]: 0
- Velvetleaf plant response rating [3, 13]: 0
- Velvetleaf plant response rating [3, 14]: 0
- Plant response rating, Velvetleaf [3, 15]: 0
- Plant response rating, Velvetleaf [3, 16]: 0
- Morningglory plant response rating [4, 13]: 0
- Morningglory plant response rating [4, 14]: 0
- Plant response rating, Morningglory [4, 15]: 0
- Plant response rating, Morningglory [4, 16]: 0
- Plant response rating, Ducksalad [5, 11]: 0
- Plant response rating, Ducksalad [5, 12]: 0
- Plant response rating, Ducksalad ([5]; Flood, 31 g ai/ha): 0
- Plant response rating, Ducksalad ([5]; Flood, 62 g ai/ha): 0
- Crabgrass, Large plant response rating [6, 13]: 0
- Crabgrass, Large plant response rating [6, 14]: 0
- Plant response rating, Crabgrass, Large [6, 15]: 0
- Plant response rating, Crabgrass, Large [6, 16]: 0
- Foxtail, Giant plant response rating [7, 13]: 0
- Foxtail, Giant plant response rating [7, 14]: 10
- Plant response rating, Foxtail, Giant [7, 15]: 0
- Plant response rating, Foxtail, Giant [7, 16]: 0
- Plant response rating, Barnyardgrass [8, 11]: 0
- Plant response rating, Barnyardgrass [8, 12]: 0
- Plant response rating, Barnyardgrass ([8]; Flood, 31 g ai/ha): 0
- Plant response rating, Barnyardgrass ([8]; Flood, 62 g ai/ha): 0
- Pigweed plant response rating [9, 13]: 0
- Pigweed plant response rating [9, 14]: 0
- Plant response rating, Pigweed [9, 15]: 0
- Plant response rating, Pigweed [9, 16]: 0
- Plant response rating, Sedge, Umbrella [10, 11]: 0
- Plant response rating, Sedge, Umbrella [10, 12]: 0
- Plant response rating, Sedge, Umbrella ([10]; Flood, 31 g ai/ha): 0
- Plant response rating, Sedge, Umbrella ([10]; Flood, 62 g ai/ha): 0
- Corn plant response rating (corn (Zea mays); [13]): 0
- Corn plant response rating (corn (Zea mays); [14]): 0
- Plant response rating, Corn (corn (Zea mays); [15]): 0
- Plant response rating, Corn (corn (Zea mays); [16]): 0
